Reference: paper PMC4012456 (Marine Drugs, 2014)
Structures can show the parent of a compound that is named as a salt. Where two headings read alike, the source gives them in different places.

Tests used:
murine muscle-type nAChR = target: T1, murine muscle-type nAChR (Mus musculus, UniProt P02716+P04756+P09690+P20782); experiment: electrophysiology on muscle nAChR expressed in Xenopus laevis oocytes; assay type: cell-based; details: for inhibition of agonist-evoked current on muscle nAChR (in words): 10 μM acetylcholine; for reversibility of inhibition of muscle nAChR: wash out
T1 construct: expressed in transfected cells; host or cells: Xenopus laevis oocytes injected with plasmid DNA (CMV promoter)
T1 sequence (P04756 21-457): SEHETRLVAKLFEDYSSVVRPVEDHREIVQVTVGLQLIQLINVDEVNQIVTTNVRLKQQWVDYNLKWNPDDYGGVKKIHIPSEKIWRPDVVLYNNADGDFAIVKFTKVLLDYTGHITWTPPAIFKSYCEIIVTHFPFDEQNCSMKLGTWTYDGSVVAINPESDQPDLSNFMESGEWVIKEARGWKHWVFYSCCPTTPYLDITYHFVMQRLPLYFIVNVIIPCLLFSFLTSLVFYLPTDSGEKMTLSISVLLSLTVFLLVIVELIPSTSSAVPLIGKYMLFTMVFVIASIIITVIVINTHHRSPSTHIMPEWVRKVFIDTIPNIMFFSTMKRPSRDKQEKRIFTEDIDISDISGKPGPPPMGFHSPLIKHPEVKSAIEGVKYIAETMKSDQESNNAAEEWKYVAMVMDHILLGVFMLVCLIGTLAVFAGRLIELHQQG
T1 sequence (P09690 24-501): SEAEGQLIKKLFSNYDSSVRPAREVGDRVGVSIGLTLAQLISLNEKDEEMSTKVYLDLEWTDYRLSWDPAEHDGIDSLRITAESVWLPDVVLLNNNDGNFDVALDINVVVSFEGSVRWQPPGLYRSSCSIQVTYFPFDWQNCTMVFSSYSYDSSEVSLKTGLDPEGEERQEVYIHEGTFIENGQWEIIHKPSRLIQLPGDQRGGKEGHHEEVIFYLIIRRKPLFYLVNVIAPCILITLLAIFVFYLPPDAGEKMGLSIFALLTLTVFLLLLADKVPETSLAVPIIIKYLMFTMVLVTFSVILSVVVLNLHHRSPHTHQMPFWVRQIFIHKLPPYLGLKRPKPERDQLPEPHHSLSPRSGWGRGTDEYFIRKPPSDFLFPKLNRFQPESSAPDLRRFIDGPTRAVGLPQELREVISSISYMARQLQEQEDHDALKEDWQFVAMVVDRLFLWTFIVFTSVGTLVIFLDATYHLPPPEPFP
T1 sequence (P02716 25-520): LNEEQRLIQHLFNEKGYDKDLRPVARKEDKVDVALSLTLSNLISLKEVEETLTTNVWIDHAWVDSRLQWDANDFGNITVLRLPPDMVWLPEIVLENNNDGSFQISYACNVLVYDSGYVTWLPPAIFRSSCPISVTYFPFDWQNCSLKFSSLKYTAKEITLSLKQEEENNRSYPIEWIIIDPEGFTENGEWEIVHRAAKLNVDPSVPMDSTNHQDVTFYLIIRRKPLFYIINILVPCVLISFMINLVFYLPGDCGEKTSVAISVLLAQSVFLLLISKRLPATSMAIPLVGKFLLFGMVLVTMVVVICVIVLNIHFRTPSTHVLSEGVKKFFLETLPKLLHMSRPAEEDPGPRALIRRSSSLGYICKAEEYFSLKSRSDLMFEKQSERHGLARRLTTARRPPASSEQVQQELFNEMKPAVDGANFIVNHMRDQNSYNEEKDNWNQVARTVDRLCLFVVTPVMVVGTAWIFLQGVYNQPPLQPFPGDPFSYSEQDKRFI
T1 sequence (P20782 21-493): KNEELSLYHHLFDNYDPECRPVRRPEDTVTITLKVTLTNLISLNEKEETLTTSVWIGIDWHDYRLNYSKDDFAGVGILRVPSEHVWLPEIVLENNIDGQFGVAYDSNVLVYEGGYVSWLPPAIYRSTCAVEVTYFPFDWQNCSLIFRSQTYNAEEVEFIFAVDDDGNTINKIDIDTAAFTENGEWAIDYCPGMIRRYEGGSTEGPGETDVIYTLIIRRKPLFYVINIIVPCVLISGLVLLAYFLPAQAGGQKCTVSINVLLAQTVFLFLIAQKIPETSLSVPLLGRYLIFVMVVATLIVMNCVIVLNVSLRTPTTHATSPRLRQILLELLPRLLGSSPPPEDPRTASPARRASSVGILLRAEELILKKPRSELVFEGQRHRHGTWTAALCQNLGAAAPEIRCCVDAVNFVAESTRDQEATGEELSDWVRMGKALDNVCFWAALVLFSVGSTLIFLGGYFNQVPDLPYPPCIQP

L. stagnalis AChBP = L. stagnalis AChBP (Lymnaea stagnalis, UniProt P58154); design: method as in PMID 18338186; details: read-out: Kd, affinity to L. stagnalis AChBP; quenching of intrinsic tryptophan fluorescence; cited from earlier work
L. stagnalis AChBP, sequence (P58154 20-229 limits assumed): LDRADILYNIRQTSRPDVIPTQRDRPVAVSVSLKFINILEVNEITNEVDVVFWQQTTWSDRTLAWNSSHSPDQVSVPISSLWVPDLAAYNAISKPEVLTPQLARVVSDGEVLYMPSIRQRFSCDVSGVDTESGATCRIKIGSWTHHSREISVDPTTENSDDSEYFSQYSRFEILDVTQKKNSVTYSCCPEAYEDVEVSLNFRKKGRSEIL

[1] = 10 μM compound, Xenopus oocytes

Row | Structure (SMILES) | inhibition of agonist-evoked current on muscle nAChR (in words) (murine muscle-type nAChR; [1]) | reversibility of inhibition of muscle nAChR (murine muscle-type nAChR; 10 μM compound) | IC50 (murine muscle-type nAChR) [µM] | other results
1 | C[C@@H](N)[C@H](O)CCCCCCCC(=O)CCCCCCCCCCCCCC[C@@H](O[C@@H]1O[C@H](CO)[C@H](O)[C@H](O)[C@H]1O)[C@@H](C)N [Compound 1, Rhizochalin] | almost completely | very slowly reversible |  | 
2 | C[C@@H](N)[C@H](O)CCCCCCCCCCCCCCC(=O)CCCCCCC[C@@H](O)[C@@H](C)N [Compound 2, aglycone of rhizochalin] | almost completely | very slowly reversible | 2 ± 0.3 | 
3 | C[C@@H]1C[C@@H]2c3cccc4[nH]c(Br)c(c34)C[C@H]2N(C)C1 [Compound 3, pibocin] | moderate activity |  | 3.7 ± 0.2 | 
4 | COc1cc(CCN)c2c(c1OC)SSSSS2 [Compound 4, Varacin] | moderate activity |  | 8.7 ± 0.4 | 
5 | C[N+]1=C2C=C(N)C(=O)c3[nH]cc(c32)CC1 [Compound 5, makaluvamine C] | weaker but still reproducible effect |  |  | 
6 | Cn1cc2c3c1C(=O)C(N/C=C/c1ccc(O)cc1)=CC3=[N+](C)CC2 [Compound 6, makaluvamine G] | almost completely | fast off-set rate | 3.3 ± 0.3 | receptor recovery time from the end of compound application (murine muscle-type nAChR; 10 μM compound, muscle nAChR): 5 min
7 | NC1=N/C(=C2/CCNC(=O)c3[nH]ccc32)C(=O)N1 [Compound 7, Debromohymenialdesine] | extremely weak, if any, activity |  |  | 
8 | C[n+]1ccccc1-c1cccc[n+]1C [Compound 8, 1,1′-Dimethyl-[2,2′]-bipyridyldiium salt] | extremely weak, if any, activity |  |  | 
9 | O=C1NCCc2cncn21 [Compound 10, 7,8-Dihydroimidazo-[1,5-c]-pyrimidin-5(6H)-one] | extremely weak, if any, activity |  |  | 
10 | Cn1c(=N)c2[nH]cnc2n(C)c1=O [Compound 11, 1,3-Dimethylisoguaniniium hydrochloride] | extremely weak, if any, activity |  |  | 
11 | COc1cc2ccnc3c2c(c1OC)NC=C3 [Compound 12, Aaptamine] | moderate activity |  |  | 
12 | CC/C=C/[C@@H]1CC[C@]2(C[C@H]3CC[C@H]4[C@@H](C(=O)OC(CC)CCCCCCCCCCCCC[C@@H]5O[C@](O)(CCN)[C@H](O)N(CCCN)C5=O)[C@@]5(CCC[C@H](C)O5)NC(=N2)N34)O1 (some centres unmarked) [Compound 13, monanchocidin] | almost completely | very slowly reversible |  | IC50 (murine muscle-type nAChR; read-out: IC50, current inhibition on muscle nAChR, acetylcholine-evoked current (10 μM acetylcholine), Xenopus oocytes): 4.1 ± 0.6 µM
13 | CN/C(=N\[N+](=O)[O-])NCc1cnc(Cl)s1 [clothianidin] |  |  |  | Kd (L. stagnalis AChBP): 7.3 µM
